Patent publication US11026942B2, “Agent for preventing and/or treating Alzheimer's disease” (KYOTO UNIVERSITY, priority 2015, dated 2021)
Where two headings read alike, the source gives them in different places.

Columns and labels:
Format in all cases: cell-based, human
[1] = tested on: Aβ; experiment: Aβ pathology (Aβ amount in medium) in cerebral cortex nerve cells induced from FAD1 patient iPS cells; conditions: for Aβ lesion (Aβ amount) / Aβ pathology: FAD1 nerve cells; for Aβ lesion (Aβ amount): compounds added 8 days after differentiation induction, Aβ amount two days later; for Aβ pathology: low dose
From the text: To perform induction from iPS cells to the cerebral cortex nerve early and with high reproducibility, iPS cells introduced with human Neurogenin 2 gene (NGN2) linked to doxycycline-inducible promoter by using PiggyBac were used (FIG. 1a, FIG. 1b, FIG. 4a and FIG. 4b). IPS cells prepared from 4 patients with familial Alzheimer's disease (FAD), 2 patients with sporadic Alzheimer's disease (SAD) and 4 healthy individuals (HC) were used. The iPS cells were established by the method described in Okita K et al., Nature. […]
(§1) To further study reproducibility of the candidate drugs obtained by the primary screening, secondary screening was conducted. In addition to Aβ40, Aβ42, Aβ42/40 ratio, Aβ38, Aβ43, sAPPα, sAPPβ were also studied and each numerical value was obtained.

[2] = tested on: Aβ42; experiment: Aβ42 in FAD1 iPS cell-derived nerve cells (primary/secondary screening, dose dependency)
How it was run: (§2)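 Cerebral cortex neurons were induced from FAD1 patient iPS cells by doxycycline-inducible NGN2, delivered by PiggyBac. Aβ40 and Aβ42 in the culture medium gave the Aβ42/40 ratio, with dose dependency examined in primary and secondary screens. The secondary screen also covered Aβ38, Aβ43, sAPPα and sAPPβ.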

[3] = tested on: Aβ40; conditions: secondary screening, FAD1 iPS cell-derived nerve cells, numerical value (Aβ change rate)
From the text: To perform induction from iPS cells to the cerebral cortex nerve early and with high reproducibility, iPS cells introduced with human Neurogenin 2 gene (NGN2) linked to doxycycline-inducible promoter by using PiggyBac were used (FIG. 1a, FIG. 1b, FIG. 4a and FIG. 4b). IPS cells prepared from 4 patients with familial Alzheimer's disease (FAD), 2 patients with sporadic Alzheimer's disease (SAD) and 4 healthy individuals (HC) were used. The iPS cells were established by the method described in Okita K et al., Nature.
Structural formulas (those in the form of salt or halide are also described as free form) and the general names of the candidate compounds are shown in Table 1.
as §1

[4] = tested on: Aβ42/40 ratio; experiment: Aβ42/40 ratio in FAD1 iPS cell-derived nerve cells (primary/secondary screening, dose dependency); conditions: secondary screening
How it was run: as §2

[5] = tested on: Aβ38; experiment: Aβ38 in FAD1 iPS cell-derived nerve cells (secondary screening); parameters: scale not given here
Protocol: as §1

[6] = tested on: Aβ43; experiment: Aβ43 in FAD1 iPS cell-derived nerve cells (secondary screening); parameters: scale not given here
Protocol: as §1

[7] = tested on: sAPPα; experiment: sAPPα in FAD1 iPS cell-derived nerve cells (secondary screening); parameters: scale not given here; conditions: secondary screening, FAD1 iPS cell-derived nerve cells
Protocol: as §1

[8] = tested on: sAPPβ; experiment: sAPPβ in FAD1 iPS cell-derived nerve cells (secondary screening); parameters: sAPPβ: scale not given here; conditions: for sAPPβ: secondary screening, FAD1 iPS cell-derived nerve cells
Protocol: as §1

[9] = secondary screening, FAD1 iPS cell-derived nerve cells, numerical value (Aβ change rate)

| Molecule | Aβ lesion (Aβ amount) [1] | Aβ42 ([2]; FAD1 nerve cells, low dose) | Aβ pathology [1] | Aβ40 [3] | Aβ42 [2, 9] | Ratio Aβ42/40 [4] | Aβ38 [5] | Aβ43 [6] | sAPPα [7] | sAPPβ [8] | Aβ suppressive effect (dopamine series) [1] | action suggested from the sAPP metabolism ([8]; sAPPα, sAPPβ, sAPPβ/α ratio) | Aβ suppressive effect (dopamine series) ([1]; neuron derived from iPS cell (FAD1)) |
| --- | --- | --- | --- | --- | --- | --- | --- | --- | --- | --- | --- | --- | --- |
| CC(C)[C@H](O)C(=O)N[C@@H](C)C(=O)N[C@@H]1C(=O)N(C)CCc2ccccc21 [semagacestat] | improved Aβ lesion | increased |  |  |  |  |  |  |  |  |  |  |  |
| CC1=C(CC(=O)O)c2cc(F)ccc2/C1=C\c1ccc([S+](C)[O-])cc1 (stereo not drawn) [sulindac] |  |  | not improved |  |  |  |  |  |  |  |  |  |  |
| COc1cc(C)c(/C=C/C(C)=C/C=C/C(C)=C/C(=O)O)c(C)c1C [acitretin] | improved Aβ lesion |  |  |  |  |  |  |  |  |  |  |  |  |
| CARBADOX [compound 29] |  |  |  | 0.84 | 0.74 | 0.88 | 0.87 | 0.76 | 0.86 | 0.78 |  |  |  |
| CEFAMANDOLE [compound 66] |  |  |  | 1.08 | 0.97 | 0.9 | 1.11 | 1.11 | 0.79 | 0.78 |  |  |  |
| BITOSCANATE [compound 123] |  |  |  | 0.93 | 0.89 | 0.96 | 1.01 | 1 | 0.76 | 0.73 |  |  |  |
| Cc1ccc(NC(=O)c2ccc(CN3CCN(C)CC3)cc2)cc1Nc1nccc(-c2cccnc2)n1 [imatinib] |  |  | not improved |  |  |  |  |  |  |  |  |  |  |
| CC(N)Cc1ccccc1 (stereo not drawn) [amphetamine] |  |  |  |  |  |  |  |  |  |  | show effects |  |  |
| CC(C)C[C@H]1C(=O)N2CCC[C@H]2[C@]2(O)O[C@](NC(=O)[C@@H]3C=C4c5cccc6[nH]c(Br)c(c56)C[C@H]4N(C)C3)(C(C)C)C(=O)N12 [compound 52, BROMOCRIPTINE] |  |  |  |  | 0.63 | 0.64 | 0.97 | 0.65 | 1.18 | 0.79 | show effects | BSI-like action |  |
| CINCHONINE [compound 24] |  |  |  | 0.87 | 0.88 |  |  | 0.81 | 0.76 | 0.68 |  |  |  |
| NCCc1ccc(O)c(O)c1 [compound 90, DOPAMINE] |  |  |  |  | 0.88 | 0.92 | 1.01 | 0.96 | 0.91 | 0.95 |  |  | show effects |
| CC(C)C[C@H](C(=O)O)c1cc(-c2ccc(C(F)(F)F)cc2)cc(-c2ccc(C(F)(F)F)cc2)c1 [JNJ-40418677] | improved Aβ lesion |  |  |  |  |  |  |  |  |  |  |  |  |
| TELITHROMYCIN [compound 108] |  |  |  | 0.99 | 0.85 |  |  | 0.84 | 0.71 | 0.68 |  |  |  |
| CC(NC(=O)c1cc(C(=O)NC(Cc2ccccc2)C(O)CNC2CC2)cc(N(C)S(C)(=O)=O)c1)c1ccccc1 (racemic) [RACE inhibitor IV] | improved Aβ lesion |  |  |  |  |  |  |  |  |  |  |  |  |
| COc1ccccc1N1CCN(CC(O)COc2cccc3ccccc23)CC1 (stereo not drawn) [compound 39, NAFTOPIDIL] |  |  |  |  | 0.86 | 0.86 | 1.1 | 0.9 | 0.73 | 0.64 |  |  |  |
| CN1C(=O)CCS(=O)(=O)C1c1ccc(Cl)cc1 (stereo not drawn) [compound 128, CHLORMEZANONE] |  |  |  |  | 0.86 | 0.78 | 1.05 | 0.85 | 0.85 | 0.72 |  |  |  |
| CC(C(=O)O)c1ccc(-c2ccccc2)c(F)c1 (stereo not drawn) [Flurbiprofen] |  |  | not improved |  |  |  |  |  |  |  |  |  |  |

| Molecule | Aβ lesion (Aβ amount) [1] | Aβ42 ([2]; FAD1 nerve cells, low dose) | Aβ pathology [1] | Aβ40 [3] | Aβ42 [2, 9] | Ratio Aβ42/40 [4] | Aβ38 [5] | Aβ43 [6] | sAPPα [7] | sAPPβ [8] | Aβ suppressive effect (dopamine series) [1] | action suggested from the sAPP metabolism ([8]; sAPPα, sAPPβ, sAPPβ/α ratio) | Aβ suppressive effect (dopamine series) ([1]; neuron derived from iPS cell (FAD1)) |
| --- | --- | --- | --- | --- | --- | --- | --- | --- | --- | --- | --- | --- | --- |
| Cc1ncc(CNC(=O)N(CCCl)N=O)c(N)n1 [compound 83, NIMUSTINE] |  |  |  |  | 0.84 | 0.86 | 1.04 | 0.89 | 0.81 | 0.89 |  |  |  |
| CN(C)C(=O)C(CCN1CCC(O)(c2ccc(Cl)cc2)CC1)(c1ccccc1)c1ccccc1 [compound 6, LOPERAMIDE] |  |  |  |  | 0.88 | 0.93 | 1.03 | 0.88 | 0.89 | 0.78 |  |  |  |
| CCCCOC(=O)c1ccc(O)cc1 [compound 53, BUTYL PARABEN] |  |  |  |  | 0.94 | 1.02 | 1.04 | 0.81 | 0.74 | 0.69 |  |  |  |
| CN1Cc2c(N)cccc2C(c2ccccc2)C1 (stereo not drawn) [compound 28, NOMIFENSINE] |  |  |  |  | 0.8 | 0.75 | 0.95 | 0.85 | 0.82 | 0.67 |  |  |  |
| DESOXYCORTICOSTERONE [compound 98] |  |  |  | 1 | 0.9 | 0.9 | 1.09 | 0.89 | 0.88 | 0.87 |  |  |  |
| O=C(O)c1cc(=O)c2c(OCC(O)COc3cccc4oc(C(=O)O)cc(=O)c34)cccc2o1 [compound 11, CROMOLYN] |  |  |  |  | 0.88 | 0.96 | 1.04 | 0.82 | 0.89 | 0.86 |  |  |  |
| C=CCSCC1Nc2cc(Cl)c(S(N)(=O)=O)cc2S(=O)(=O)N1 (stereo not drawn) [compound 117, ALTHIAZIDE] |  |  |  |  | 0.81 | 0.91 | 1.03 | 0.91 | 0.92 | 0.7 |  |  |  |
| CSc1ccc2c(c1)C(N1CCN(C)CC1)Cc1ccccc1S2 (stereo not drawn) [compound 31, METITEPINE] |  |  |  |  | 0.83 | 0.86 | 1.03 | 0.88 | 0.76 | 0.66 |  |  |  |
| CC(C)(C)NCC(O)c1ccccc1Cl (stereo not drawn) [compound 82, TULOBUTEROL] |  |  |  |  | 0.83 | 0.85 | 1 | 0.84 | 0.87 | 0.74 |  |  |  |
| CCCCCCCCCCCCCCCC[N+](C)(C)C [compound 113, CETRIMONIUM] |  |  |  |  | 0.71 | 0.74 | 0.56 | 0.56 | 0.76 | 0.59 |  |  |  |
| CNCCc1ccccn1 [compound 21, BETAHISTINE] |  |  |  |  | 0.98 | 1.08 | 1.01 | 0.87 | 0.73 | 0.91 |  |  |  |
| NCC(=O)CCC(=O)O [compound 47, AMINOLEVULINIC ACID] |  |  |  |  | 1.06 | 0.97 | 1.29 | 1.16 | 1.15 | 1.4 |  |  |  |
| O=C(O)CCNC(=O)c1ccccc1 [compound 32, BETAMIPRON] |  |  |  |  | 0.84 | 0.82 | 1.1 | 0.82 | 0.7 | 0.6 |  |  |  |
| CC1=NS(=O)(=O)c2cc(Cl)ccc2N1 [compound 125, DIAZOXIDE] |  |  |  |  | 0.92 | 0.97 | 1.08 | 0.9 | 0.84 | 0.84 |  |  |  |
| CN[C@H](CC(C)C)C(=O)N[C@H]1C(=O)N[C@@H](CC(N)=O)C(=O)N[C@H]2C(=O)N[C@H]3C(=O)N[C@H](C(=O)N[C@H](C(=O)O)c4cc(O)cc(O)c4-c4cc3ccc4O)[C@H](O)c3ccc(c(Cl)c3)Oc3cc2cc(c3O[C@@H]2O[C@H](CO)[C@@H](O)[C@H](O)[C@H]2O[C@H]2C[C@](C)(N)[C@H](O)[C@H](C)O2)Oc2ccc(cc2Cl)[C@H]1O [compound 105, VANCOMYCIN] |  |  |  | 1.01 | 1.06 | 1.05 | 1.29 | 1.2 | 1.33 | 1.36 |  |  |  |
| COc1ccc(C(=O)c2ccccc2O)c(O)c1 [compound 54, DIOXYBENZONE] |  |  |  |  | 0.93 | 1.02 | 1.16 | 0.83 | 0.72 | 0.75 |  |  |  |
| Nc1ccn([C@@H]2O[C@H](CO)[C@@H](O)[C@@H]2O)c(=O)n1 [compound 115, CYTARABINE] |  |  |  |  | 0.8 | 0.9 | 0.99 | 0.81 | 0.74 | 0.69 |  |  |  |
